Read-outs that look alike come from different tables or passages of the source. One block for each compound: values may come before it.
Columns and labels:
MV-4-11 cells = test: Antiproliferation assay MV-4-11 (Assay 7); format: cell-based; details: 72 h, CellTiter-Glo; read-out: Antiproli MV-4-11 IC50 median
Method: (§1) Assessment of the Anti-Proliferative Effect of Compounds in Different Cell Lines
(§2) The impact of compounds on the proliferation of different cell lines was assessed using the CellTiter-Glo® Luminescent Cell Viability reagent from Promega (G7573).
(§3) In parallel, cells were plated in a reference (day 0) plate for time zero determination. Cells were incubated in a humidified incubator at 37° C. overnight.
(§4) Rim wells were excluded. The cells were incubated for 72 h hours in a humidified incubator at 37° C. The day 0 plate was measured by adding 30 μL/well of CTG solution (CellTiter-Glo® Luminescent Cell Viability reagent, Promega G7573) to time zero wells in the reference plate followed by a 10 minutes incubation and luminescence reading at 0.1 ms. using the PHERAstar FS microplate reader (BMG Labtech).
(§5) After 72 h incubation, the treated plates were measured in the same way as the day 0 plate mentioned above. The Bella DRC Master Sheet was used to calculate IC50s, with CI=day 0 values and C0=DMSO control values.

AMO-1 cells = test: Antiproliferation assay AMO-1 (Assay 7); format: cell-based; details: 72 h, CellTiter-Glo; read-out: Antiproli AMO-1 IC50 median
In short: (§6)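 72 h antiproliferation, 37 °C, CellTiter-Glo luminescence. Day 0 plate = CI; DMSO = C0; IC50 calculated from these.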

A2780 cells = test: Antiproliferation assay A2780 (Assay 7); format: cell-based; details: 72 h, CellTiter-Glo; read-out: Antiproli A2780 IC50 median
Method: as §1, §2, §3, §4, §5

SNU-389 cells = test: Antiproliferation assay SNU-389 (Assay 7); format: cell-based; details: 72 h, CellTiter-Glo; read-out: Antiproli SNU-389 IC50
Method: as §1, §2, §3, §4, §5

REC-1 cells = test: Antiproliferation assay REC-1 (Assay 7); format: cell-based; details: 72 h, CellTiter-Glo; read-out: Antiproli REC-1 IC50
Method: as §1, §2, §3, §4, §5

MBP-MCL1 = MBP-MCL1 (Homo sapiens (Human), UniProt Q07820, K194A/K197A/R201A); test: X-ray crystallographic analysis of MBP-MCL1 in complex with inhibitor; format: binding; details: MBP-MCL1 co-crystal structure
Excerpt: For clarity only the ligand non-hydrogen atoms are shown. Carbon atom C7 unambiguously features the (R)-configuration and the bound atropisomer as defined by the C4-C38 axis is the (Ra)-configuration.
The X-ray crystallographic analysis described in the MCL-1 structural analysis section infra, provides an atomic resolution view of the relative arrangement of the atoms of MBP-MCL1 in complex with example 47.

MCL-1 = MCL-1 (Homo sapiens (Human), UniProt Q07820, K194A/K197A/R201A); test: Protein-protein interaction assay MCL-1/Noxa BH3 peptide (MCL-1 assay, TR-FRET); format: binding; details: read-out: MCL-1 Assay IC50 (median)
In short: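 Competition TR-FRET with MBP-MCL-1 (aa 173-321) at 1 nM final and biotinylated Noxa BH3 peptide, pH 7 Tris buffer. Compounds pre-incubated 10 min at 22° C., then 1 h at 22° C. and overnight at 4° C. 665/620 nm ratio normalized to DMSO; IC50 from 4-parameter fit.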

SUDHL5 cells = test: Induction of cytotoxicity in SUDHL5 cells (Assay 6); format: cell-based; details: 5 h, CellTiter-Glo; read-out: Cytotox SUDHL5 IC50 (median)
In short: (§7)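 Overnight seeding, 37 °C; 5 h compound exposure; CellTiter-Glo, 15 min RT shake; luminescence read. No-cell medium control.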

SUDHL10 cells = test: Induction of cytotoxicity in SUDHL10 cells (Assay 6); format: cell-based; details: 5 h, CellTiter-Glo; read-out: Cytotox SUDHL10 IC50 (median)
In short: as §7

HMC-1-8 cells = test: Antiproliferation assay HMC-1-8 (Assay 7); format: cell-based; details: 72 h, CellTiter-Glo; read-out: Antiproli HMC-1-8 IC50 median
In short: as §6

SK-BR-3 cells = test: Antiproliferation assay SK-BR-3 (Assay 7); format: cell-based; details: 72 h, CellTiter-Glo; read-out: Antiproli SK-BR-3 IC50 median
Method: as §1, §2, §3, §4, §5

NCI-H23 cells = test: Antiproliferation assay NCI-H23 (Assay 7); format: cell-based; details: 72 h, CellTiter-Glo; read-out: Antiproli NCI-H23 IC50
Method: as §1, §2, §3, §4, §5

A2058 cells = test: Antiproliferation assay A2058 (Assay 7); format: cell-based; details: 72 h, CellTiter-Glo; read-out: Antiproli A2058 IC50
Method: as §1, §2, §3, §4, §5

SK-MEL-2 cells = test: Antiproliferation assay SK-MEL-2 (Assay 7); format: cell-based; details: 72 h, CellTiter-Glo; read-out: Antiproli SK-MEL-2 IC50 median
Method: as §1, §2, §3, §4, §5

[1] = 11-membered ring

Sequence of MBP-MCL1 (Q07820 whole entry, looked up, stated change not applied): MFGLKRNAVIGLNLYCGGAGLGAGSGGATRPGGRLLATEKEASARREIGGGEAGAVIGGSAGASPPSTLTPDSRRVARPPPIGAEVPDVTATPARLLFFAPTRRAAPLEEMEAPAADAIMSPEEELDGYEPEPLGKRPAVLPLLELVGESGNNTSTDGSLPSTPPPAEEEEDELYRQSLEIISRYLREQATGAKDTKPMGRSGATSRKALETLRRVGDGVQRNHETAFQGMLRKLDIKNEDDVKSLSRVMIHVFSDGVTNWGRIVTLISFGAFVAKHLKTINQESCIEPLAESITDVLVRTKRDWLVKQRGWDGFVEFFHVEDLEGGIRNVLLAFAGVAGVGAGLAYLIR
Sequence of MCL-1 (Q07820 whole entry, looked up, stated change not applied, the tested form may be a part): as the sequence (Q07820 whole entry, looked up, stated change not applied) above

IC50 (MV-4-11 cells): 1.75 µM
IC50 (A2780 cells): 14.3 µM
IC50 (SNU-389 cells): 10.7 µM
Compound: Cc1c2c(nn1C)C(CCN1CCOCC1)OCCCCn1c(C(=O)O)c(CCCOc3cccc4ccccc34)c3cccc-2c31 (stereo not shown) [Example 04]
IC50 (AMO-1 cells): 2.56 µM
IC50 (REC-1 cells): 21 µM

interaction with the target MCL1 shown by X-ray structure of the complex (MBP-MCL1): clear and direct interaction
IC50 (MCL-1): 0.00037 µM
Compound: CCc1c2c(nn1C)[C@@H](CCN1CCOCC1)OCCCCn1c(C(=O)O)c(CCCOc3cccc4cc(F)ccc34)c3ccc(Cl)c-2c31 [Example 47, (+)-4-chloro-3-ethyl-7-{3-[(6-fluoronaphthalen-1-yl)oxy]propyl}-2-methyl-(15R)-[2-(morpholin-4-yl)ethyl]-2,10,11,12,13,15-hexahydropyrazolo[4′,3′:9,10][1,6]oxazacycloundecino[8,7,6-hi]indole-8-carboxylic Acid]
IC50 (SUDHL5 cells): 0.0082 µM
IC50 (SUDHL10 cells): 0.0079 µM

IC50 (MV-4-11 cells): 1.75 µM
IC50 (SK-BR-3 cells): 7.3 µM
IC50 (A2780 cells): 14.4 µM
IC50 (NCI-H23 cells): 6.98 µM
IC50 (SK-MEL-2 cells): 11.6 µM
Compound: Cc1c2c(nn1C)C(CCN1CCOCC1)OCCCCn1c(C(=O)O)c(CCCOc3cccc4ccccc34)c3cccc-2c31 (stereo not shown) [Example 05]
IC50 (AMO-1 cells): 9.47 µM
IC50 (HMC-1-8 cells): 6.29 µM
IC50 (A2058 cells): 12.8 µM

Compound: CCOC(=O)c1[nH]c2c(-c3c(C(O)CCN4CCOCC4)nn(C)c3CC)c(F)ccc2c1CCCOc1cccc2ccccc12 (racemic)
ring closure, isolated yield ([1]; the molecule shown is the open-chain precursor, crosslinker bond, (Z)-1,4-dichlorobut-2-ene/Cs2CO3/NaI, MeCN, 98.0 mM, […]): 50%

Compound: CCOC(=O)c1c(CCCOc2cccc3cc(F)ccc23)c2ccc(Cl)c3c2n1CCC(F)(F)COC(CCN1CCOCC1)c1nn(C)c(CC)c1-3 (stereo not shown)
ring closure, isolated yield ([1]; from CCOC(=O)c1[nH]c2c(-c3c(C(CCN4CCOCC4)OCC(F)(F)CCO)nn(C)c3CC)c(Cl)ccc2c1CCCOc1cccc2cc(F)ccc12, amine bond, PPh3/DTBAD, THF, 22.5 mM): 83%

Compound: (rac)-ethyl 4-chloro-3-ethyl-7-{3-[(6-fluoronaphthalen-1-yl)oxy]propyl}-2-methyl-(15-rac)-[2-(4-methylpiperazin-1-yl)ethyl]-2,10,11,12,13,15-hexahydropyrazolo[4′,3′:9,10][1,6]oxazacycloundecino[8,7,6-hi]indole-8-carboxylate
ring closure, isolated yield ([1]; amine bond, PPh3/DTBAD, THF, 22.7 mM): 49%

Compound: ethyl (15-rac)-4-chloro-3-ethyl-15-[2-(3-rac-(fluoroazetidin-1-yl)ethyl]-7-{3-[(6-fluoronaphthalen-1-yl)oxy]propyl}-2-methyl-2,10,11,12,13,15-hexahydropyrazolo[4′,3′:9,10][1,6]oxazacycloundecino[8,7,6-hi]indole-8-carboxylate (Mixture of Stereoisomers)
ring closure, isolated yield ([1]; amine bond, PPh3/DTBAD, THF, 69.2 mM): 77%

Compound: CCOC(=O)c1[nH]c2c(-c3c(C(O)C4CC4)nn(C)c3CC)c(Cl)ccc2c1CCCOc1cccc2cc(F)ccc12 (racemic)
ring closure, isolated yield ([1]; the molecule shown is the open-chain precursor, crosslinker bond, (Z)-1,4-dichlorobut-2-ene/Cs2CO3/NaI, MeCN, 197.0 mM, 70.0 °C): 59%

Source: patent US11440923B2, “Substituted macrocyclic indole derivatives” (Bayer Aktiengesellschaft, priority 2017, dated 2022)
